Residues, ends and D or L forms follow the SMILES beside them.
Assay: White cell and T cell subset counts (CD4, CD8, NK) in HIV infected patient given HEP1
Format: in vivo, human
Conditions: patient three
Procedure: The objective of this study was to determine in an HIV infected patient if the induction of immunological tolerance to HEP1 could reduce immune activation and HIV infection. The design of the first clinical experiment was to orally administer HEP1 to the patient in daily 10 mg doses (the lower end of the preferred dose range). This was then followed approximately three months later with a subcutaneous administration of HEP1 at a higher dose of 140 mg. To assess the therapeutic benefit of HEP1, the following disease progression markers were measured by taking blood samples before, during and after each trial and determining: HIV levels by a p24 antigen assay, HIV infectivity by a cellular TCID assay and immune activation by quantitating levels of various lymphocytes.
T cell subsets were measured by adding a whole blood sample to a 4.5 ml tube containing EDTA and staining with monoclonal antibodies to CD3, CD4 and CD8. The percentage of T cells in Peripheral Blood Lymphocytes were determined by flow-cytometric procedures. The numbers of CD4 and CD8 T cells were determined by obtaining total and differential white-cell counts and multiplying by the appropriate factor obtained on flow cytometry.
The following markers of HIV disease progression were assayed: p24Ag (the concentration of HIV p24 protein in picogram/ml in the blood), TCID (the infectivity of the HIV in the cells of blood sample measured by an in vitro cell culture assay in which a serial dilution of the sample was mixed with activated uninfected PBMC and the level of HIV infection determined by p24Ag assay), total white count (immune activation measured by the number of white cells per mm^3), CD4 (the number of CD4 positive cells per mm^3), CD8 (the number of CD8 positive cells per mm^3), NK (the number of Natural Killer cells per mm^3), Lymphocytes (the number of cells per mm^3), Monocytes (the number of cells per mm^3), and Granulocytes (the number of cells per mm^3). Normalised data was calculated by dividing each data point by the value of its data series on day 1 of the trail and multiplying by 100.

[1] = oral HEP1 10 mg daily day 2-22, day 1, before first dose
[2] = oral HEP1 10 mg daily day 2-22, day 7, during treatment
[3] = oral HEP1 10 mg daily day 2-22, day 14, during treatment
[4] = oral HEP1 10 mg daily day 2-22, day 21, during treatment
[5] = oral HEP1 10 mg daily day 2-22, day 28, after treatment
[6] = oral HEP1 10 mg daily day 2-22, day-69, before treatment
[7] = orally administered HEP1 10 mg daily
[8] = single subcutaneous HEP1 dose on day 1, day 1*, four hours after injection
[9] = single subcutaneous HEP1 dose on day 1, day 1, before injection
[10] = single subcutaneous HEP1 dose on day 1, day 6, after injection
[11] = single subcutaneous HEP1 dose on day 1, day-7, before treatment
[12] = single subcutaneous HEP1 dose on day 1, day-56, before treatment
[13] = single subcutaneous HEP1 dose on day 1, day-91, end of oral study
[14] = subcutaneous administration of one larger dose of HEP1

## CC(C)[C@H](NC(=O)[C@@H](NC(=O)[C@H](CCC(=O)O)NC(=O)[C@H](CCCNC(=N)N)NC(=O)[C@H](CCCNC(=N)N)NC(=O)[C@H](CCCCN)NC(=O)[C@H](CCCCN)NC(=O)[C@H](CCC(=O)O)NC(=O)[C@@H](N)[C@@H](C)O)[C@@H](C)O)C(=O)N[C@@H](CCC(=O)O)C(=O)N[C@@H](CCCNC(=N)N)C(=O)N[C@@H](CCC(=O)O)C(=O)N[C@@H](CCCCN)C(=O)N[C@@H](CCC(=O)O)C(=O)O [HEP1, NH2 ThrGluLysLysArgArgGluThrValGluArgGluLysGluCOOH] (H-TEKKRRETVEREKE-OH)
[1]
  % Granulocytes: 76.1%
  % Granulocytes, normalised data (day 1 = 100): 100
  % Lymphocytes: 17.8%
  % Lymphocytes, normalised data (day 1 = 100): 100
  % Monocytes: 6.1%
  % Monocytes, normalised data (day 1 = 100): 100
  CD4: 80 cells per mm^3
  CD4, normalised data (day 1 = 100): 100
  CD8: 900 cells per mm^3
  CD8, normalised data (day 1 = 100): 100
  Granulocytes: 6230 cells per mm^3
  Lymphocytes: 1480 cells per mm^3
  Lymphocytes, normalised data (day 1 = 100): 100
  Monocytes: 570 cells per mm^3
  Monocytes, normalised data (day 1 = 100): 100
  NK: 30 cells per mm^3
  NK, normalised data (day 1 = 100): 100
  White count: 8200 cells per mm^3
  White count, normalised data (day 1 = 100): 100
[2]
  % Granulocytes: 81.4%
  % Granulocytes, normalised data (day 1 = 100): 107
  % Lymphocytes: 15.5%
  % Lymphocytes, normalised data (day 1 = 100): 87
  % Monocytes: 3.1%
  % Monocytes, normalised data (day 1 = 100): 51
  CD4: 80 cells per mm^3
  CD4, normalised data (day 1 = 100): 100
  CD8: 850 cells per mm^3
  CD8, normalised data (day 1 = 100): 94
  Granulocytes: 6560 cells per mm^3
  Granulocytes, normalised data (day 1 = 100): 105
  Lymphocytes: 1150 cells per mm^3
  Lymphocytes, normalised data (day 1 = 100): 78
  Monocytes: 490 cells per mm^3
  Monocytes, normalised data (day 1 = 100): 86
  NK: 30 cells per mm^3
  NK, normalised data (day 1 = 100): 100
  White count: 8200 cells per mm^3
  White count, normalised data (day 1 = 100): 100
[3]
  % Granulocytes: 76.8%
  % Granulocytes, normalised data (day 1 = 100): 101
  % Lymphocytes: 16.8%
  % Lymphocytes, normalised data (day 1 = 100): 94
  % Monocytes: 6.4%
  % Monocytes, normalised data (day 1 = 100): 105
  CD4: 90 cells per mm^3
  CD4, normalised data (day 1 = 100): 113
  CD8: 900 cells per mm^3
  CD8, normalised data (day 1 = 100): 100
  Granulocytes: 5620 cells per mm^3
  Granulocytes, normalised data (day 1 = 100): 90
  Lymphocytes: 1460 cells per mm^3
  Lymphocytes, normalised data (day 1 = 100): 99
  Monocytes: 620 cells per mm^3
  Monocytes, normalised data (day 1 = 100): 109
  NK: 40 cells per mm^3
  NK, normalised data (day 1 = 100): 133
  White count: 7700 cells per mm^3
  White count, normalised data (day 1 = 100): 94
[4]
  % Granulocytes: 76.2%
  % Granulocytes, normalised data (day 1 = 100): 100
  % Lymphocytes: 18.6%
  % Lymphocytes, normalised data (day 1 = 100): 104
  % Monocytes: 5.2%
  % Monocytes, normalised data (day 1 = 100): 85
  CD4: 80 cells per mm^3
  CD4, normalised data (day 1 = 100): 100
  CD8: 910 cells per mm^3
  CD8, normalised data (day 1 = 100): 101
  Granulocytes: 5100 cells per mm^3
  Granulocytes, normalised data (day 1 = 100): 82
  Lymphocytes: 1160 cells per mm^3
  Lymphocytes, normalised data (day 1 = 100): 78
  Monocytes: 540 cells per mm^3
  Monocytes, normalised data (day 1 = 100): 95
  NK: 40 cells per mm^3
  NK, normalised data (day 1 = 100): 133
  White count: 6800 cells per mm^3
  White count, normalised data (day 1 = 100): 83
[5]
  % Granulocytes: 74.5%
  % Granulocytes, normalised data (day 1 = 100): 98
  % Lymphocytes: 20%
  % Lymphocytes, normalised data (day 1 = 100): 112
  % Monocytes: 5.5%
  % Monocytes, normalised data (day 1 = 100): 90
  CD4: 80 cells per mm^3
  CD4, normalised data (day 1 = 100): 100
  CD8: 730 cells per mm^3
  CD8, normalised data (day 1 = 100): 81
  Granulocytes: 4020 cells per mm^3
  Granulocytes, normalised data (day 1 = 100): 65
  Lymphocytes: 1050 cells per mm^3
  Lymphocytes, normalised data (day 1 = 100): 71
  Monocytes: 440 cells per mm^3
  Monocytes, normalised data (day 1 = 100): 77
  NK: 20 cells per mm^3
  NK, normalised data (day 1 = 100): 67
  White count: 5500 cells per mm^3
  White count, normalised data (day 1 = 100): 67
[6]
  % Granulocytes: 80.4%
  % Granulocytes, normalised data (day 1 = 100): 106
  % Lymphocytes: 15.4%
  % Lymphocytes, normalised data (day 1 = 100): 87
  % Monocytes: 4.2%
  % Monocytes, normalised data (day 1 = 100): 96
  CD4: 90 cells per mm^3
  CD4, normalised data (day 1 = 100): 113
  CD8: 850 cells per mm^3
  CD8, normalised data (day 1 = 100): 94
  Granulocytes: 6000 cells per mm^3
  Granulocytes, normalised data (day 1 = 100): 96
  Lymphocytes: 1260 cells per mm^3
  Lymphocytes, normalised data (day 1 = 100): 85
  Monocytes: 630 cells per mm^3
  Monocytes, normalised data (day 1 = 100): 111
  NK: 20 cells per mm^3
  NK, normalised data (day 1 = 100): 67
  White count: 7900 cells per mm^3
  White count, normalised data (day 1 = 100): 96
[7]
  CD4 count, course: no significant increase
  CD8, course: increased during treatment
  total white cell count, course (immune activation): fell during and after treatment and fall
[8]
  % Granulocytes: 55%
  % Granulocytes, normalised data (day 1 = 100): 80
  % Lymphocytes: 33%
  % Lymphocytes, normalised data (day 1 = 100): 142
  % Monocytes: 11%
  % Monocytes, normalised data (day 1 = 100): 138
  CD4: 120 cells per mm^3
  CD4, normalised data (day 1 = 100): 150
  CD8: 1130 cells per mm^3
  CD8, normalised data (day 1 = 100): 128
  Granulocytes: 2530 cells per mm^3
  Granulocytes, normalised data (day 1 = 100): 66
  Lymphocytes: 1520 cells per mm^3
  Lymphocytes, normalised data (day 1 = 100): 118
  Monocytes: 510 cells per mm^3
  Monocytes, normalised data (day 1 = 100): 113
  NK: 30 cells per mm^3
  NK, normalised data (day 1 = 100): 267
  White count: 4600 cells per mm^3
  White count, normalised data (day 1 = 100): 82
[9]
  % Granulocytes: 69%
  % Granulocytes, normalised data (day 1 = 100): 100
  % Lymphocytes: 23.3%
  % Lymphocytes, normalised data (day 1 = 100): 100
  % Monocytes: 8%
  % Monocytes, normalised data (day 1 = 100): 100
  CD4: 80 cells per mm^3
  CD4, normalised data (day 1 = 100): 100
  CD8: 880 cells per mm^3
  CD8, normalised data (day 1 = 100): 100
  Granulocytes: 3860 cells per mm^3
  Granulocytes, normalised data (day 1 = 100): 100
  Lymphocytes: 1290 cells per mm^3
  Lymphocytes, normalised data (day 1 = 100): 100
  Monocytes: 450 cells per mm^3
  Monocytes, normalised data (day 1 = 100): 100
  NK: 30 cells per mm^3
  NK, normalised data (day 1 = 100): 100
  White count: 5600 cells per mm^3
  White count, normalised data (day 1 = 100): 100
[10]
  % Lymphocytes: 22.2%
  CD4: 80 cells per mm^3
  CD4, normalised data (day 1 = 100): 100
  CD8: 780 cells per mm^3
  CD8, normalised data (day 1 = 100): 89
  White count: 5400 cells per mm^3
  White count, normalised data (day 1 = 100): 96
[11]
  % Granulocytes: 81%
  % Granulocytes, normalised data (day 1 = 100): 117
  % Lymphocytes: 12.9%
  % Lymphocytes, normalised data (day 1 = 100): 55
  % Monocytes: 7%
  % Monocytes, normalised data (day 1 = 100): 88
  CD4: 70 cells per mm^3
  CD4, normalised data (day 1 = 100): 88
  CD8: 670 cells per mm^3
  CD8, normalised data (day 1 = 100): 76
  Granulocytes: 6640 cells per mm^3
  Granulocytes, normalised data (day 1 = 100): 172
  Lymphocytes: 980 cells per mm^3
  Lymphocytes, normalised data (day 1 = 100): 76
  Monocytes: 570 cells per mm^3
  Monocytes, normalised data (day 1 = 100): 127
  NK: 40 cells per mm^3
  NK, normalised data (day 1 = 100): 133
  White count: 8200 cells per mm^3
  White count, normalised data (day 1 = 100): 146
[12]
  % Granulocytes: 75%
  % Granulocytes, normalised data (day 1 = 100): 109
  % Lymphocytes: 19%
  % Lymphocytes, normalised data (day 1 = 100): 82
  % Monocytes: 6%
  % Monocytes, normalised data (day 1 = 100): 75
  CD4: 75 cells per mm^3
  CD4, normalised data (day 1 = 100): 94
  CD8: 880 cells per mm^3
  CD8, normalised data (day 1 = 100): 100
  Granulocytes: 4950 cells per mm^3
  Granulocytes, normalised data (day 1 = 100): 128
  Lymphocytes: 1250 cells per mm^3
  Lymphocytes, normalised data (day 1 = 100): 97
  Monocytes: 400 cells per mm^3
  Monocytes, normalised data (day 1 = 100): 89
  NK: 75 cells per mm^3
  NK, normalised data (day 1 = 100): 250
  White count: 6600 cells per mm^3
  White count, normalised data (day 1 = 100): 118
[13]
  % Granulocytes: 74.5%
  % Granulocytes, normalised data (day 1 = 100): 108
  % Lymphocytes: 20%
  % Lymphocytes, normalised data (day 1 = 100): 86
  % Monocytes: 5.5%
  % Monocytes, normalised data (day 1 = 100): 69
  CD4: 80 cells per mm^3
  CD4, normalised data (day 1 = 100): 100
  CD8: 730 cells per mm^3
  CD8, normalised data (day 1 = 100): 83
  Granulocytes: 4020 cells per mm^3
  Granulocytes, normalised data (day 1 = 100): 104
  Lymphocytes: 1050 cells per mm^3
  Lymphocytes, normalised data (day 1 = 100): 81
  Monocytes: 440 cells per mm^3
  Monocytes, normalised data (day 1 = 100): 98
  NK: 20 cells per mm^3
  NK, normalised data (day 1 = 100): 67
  White count: 5500 cells per mm^3
  White count, normalised data (day 1 = 100): 98
[14]
  CD4 and CD8 T cells, course after the rise: return to the pre-injection i levels six days later
  rise in CD4 T cells after the HEP1 injection: +50%
  rise in CD8 T cells after the HEP1 injection: +28%
Subcutaneous administration of one larger dose of HEP1 (FIG. 3)
  CD4+ and CD8+ T cells, course: sharp increase

Reference: patent publication US5773573A, “HIV peptides” (priority 1994, dated 1998)
